Key:
[1] = tested on: Osteosarcoma-17 xenograft; assay: Osteosarcoma tumor regression model; format: in vivo, mice; set-up: key: 6+: Maintained Complete Regression; 5+: Complete Regression; 4+: Partial Regression; 3+: Stable Disease; conditions: 28 mg/kg oral gavage, [(d×5)2]3 schedule
Experimental: (§1) This test was carried out with the use of the methods described in Cancer, Res., Oct. 15, 64:20:7491-9 (2004), and in Clin. Cancer Res., Nov. 15:9 (15):5442-53 (2003).
(§2) All mice bearing subcutaneous (“Sc”) tumors measuring approximately 0.2-1 cm in diameter were treated with a test compound by oral gavage using [(d×5)2]3 schedule. […] The tumor response to the test compound was defined as follows: For individual tumors, partial regression (“PR”) was defined as a volume regression >50%, but with measurable tumor at all times. Complete regression (“CR”) was defined as disappearance of measurable tumor mass at some point within 12 weeks after initiation of therapy. Maintained CR is defined as no tumor re-growth within a 12-week study time frame. This time point was chosen because all studies lasted at least 12 weeks. Mice that died before the end of the 12-week study time, and prior to achieving a response, were considered as failures for tumor response.

[2] = tested on: Osteosarcoma-29 xenograft; assay: Osteosarcoma tumor regression model; format: in vivo, mice; set-up: key: 6+: Maintained Complete Regression; 5+: Complete Regression; 4+: Partial Regression; 3+: Stable Disease; conditions: 28 mg/kg oral gavage, [(d×5)2]3 schedule
Experimental: as §1, §2

Osteosarcoma-2 xenograft = assay: Osteosarcoma tumor regression model; format: in vivo, mice; set-up: key: 6+: Maintained Complete Regression; 5+: Complete Regression; 4+: Partial Regression; 3+: Stable Disease; conditions: 28 mg/kg oral gavage, [(d×5)2]3 schedule
Experimental: as §1, §2

[3] = tested on: Osteosarcoma-32 xenograft; assay: Osteosarcoma tumor regression model; format: in vivo, mice; set-up: key: 6+: Maintained Complete Regression; 5+: Complete Regression; 4+: Partial Regression; 3+: Stable Disease; conditions: 28 mg/kg oral gavage, [(d×5)2]3 schedule
Experimental: as §1, §2

[4] = tested on: Saos-2 cells over expressing functional BCRP#4; assay: cells; format: cell-based, human; conditions: for IC50: Homo sapiens, SAOS-2, 144 h, read-out: BCRP mut#4 (IC50 (nM))
Experimental: (§3) The anticancer effect of 5(S)-(2′-hydroxyethoxy)-20(S)-camptothecin & 5(R)-(2′-hydroxyethoxy)-20(S)-camptothecin were evaluated versus the racemate 5(RS)-(2′-hydroxyethoxy)-20(S)-camptothecin on Saos-2 cells over expressing functional BCRP#4 and non-functional BCRP mut#10. The human osteosarcoma cell line, Saos-2, was obtained from ATCC (American Type Culture Collection, Cat#HTB-85, Manassas, Va.) and were maintained in DMEM containing 10% fetal bovine serum, 1% penicillin/streptomycin, and 2 mM glutamine. Saos-2 cells were transfected with either BCRP#4 to over express functional BCRP or BCRP#10 to over express non-functional BCRP transporter. The cells were plated in 96-well plates at a density of 1000 cells per each well in a 0.1 ml of medium and allowed to attach overnight. The next morning the medium was gently aspirated and serial dilutions of the compounds to be tested were added. The cells were incubated at 37° C. in a 5% CO2 incubator. After 6 days of exposure to the test drugs, 10µl of Alamar blue was added aseptically to each well and the plates were returned to the incubator for 6 hr. The amount of the fluorescent dye produced was measured on a Cytofluor.RTM. 2300 (Millipore, Bedford, Mass.) using an excitation wavelength of 530 nm and emission wavelength of 590 nm. The relative fluorescence units obtained were used to calculate the percentage growth at each concentration in relation to the untreated control values. From the percentage growth values the IC50 (inhibitory concentration required to inhibit the cell growth by 50% compared to control cells growth) values were derived.

[5] = tested on: Saos-2 cells over expressing non-functional BCRP mut#10; assay: cells; format: cell-based, human; conditions: for IC50: Homo sapiens, SAOS-2, 144 h, read-out: BCRP mut#10 (IC50 (nM))
Experimental: as §3

[6] = tested on: NCl-H460 (human small cell lung carcinoma) xenografts; assay: NCl-H460 xenograft study in nude mice; conditions: oral, (d×5)2 schedule
Experimental: To perform the NCl-H460 xenograft study, NCl-H460 tumor pieces measuring ~60 mm^3 were implanted in the space of dorsal lateral flanks of female athymic nude mice to initiate tumor growth. When the tumors were grown to ~150-1000 mm^3, animals were randomized into groups of five prior to initiating therapy. […] Each gram of placebo was formulated to contain 895.2 mg hydroxylpropyl beta cyclodextran, 89.52 mg dextrose anhydrous and 14.9 mg sodium carbonate. Each formulation was dissolved in 2 ml sterile water and administered through oral route in a (d×5)2 schedule. Tumor diameters were measured twice a week using a vernier caliper.
Tumor volumes were calculated assuming tumors to be ellipsoid using the formula: V=(D×d^2)/2, where V (mm^3) is tumor volume, D is longest diameter in mm and d is shortest diameter in mm. Change in tumor volumes (Δ) for each treated (T) and control (C) group were calculated by subtracting the mean tumor volume on the first day of treatment (starting day) from the mean tumor volume on the specified observation day. These values were used to calculate a percentage growth (% T/C) using the formulas:
Percentage tumor growth inhibition (% TGI) was then calculated using the formula: % TGI=100−% TC.
All of the mice bearing subcutaneous tumors measuring approximately 150-800 mm^3 were treated with test compound through oral gavage using a (d×5)2 schedule. Tumor diameters were measured twice in a week using vernier calipers and tumor volumes were calculated assuming tumors to be ellipsoid using the formula V=(D×d^2)/2 where V (mm^3) is tumor volume, D is longest diameter in mm., and d is shortest diameter in mm. Changes in tumor Volumes (Δ volumes) for each treated (T) and control (C) group are calculated, by subtracting the mean tumor volume on the first day of treatment (starting day) from the mean tumor volume of on the specified observation day. These values are used to calculate a percentage growth (% T/C) using the formula: […]
Tumor regressions are defined as partial if the tumor volume decreases to 50% or less of the tumor volume at the start of the treatment without dropping below to 63 mm^3. Complete regression is defined if the tumor volume drops to below measurable limits (<63 mm^3).
The percentage body weight change in comparison to starting day body weight of each animal was calculated using the formula: Percentage Body weight change=[(Body weight on specified observation day-Body weight on starting day)/Body weight on starting day]×100.
The other parameter observed was mortality.

Row | Compound | Tumor response [1] | Tumor response [2] | Tumor response (Osteosarcoma-2 xenograft) | Tumor response [3] | IC50 [4] [nM] | IC50 [5] [nM] | % Tumor Growth Inhibition ([6]; Dose 2 mg/kg) [%] | Mortality ([6]; Dose 2 mg/kg) | % Tumor Growth Inhibition ([6]; Dose 4 mg/kg) [%] | Mortality ([6]; Dose 4 mg/kg) | fold more cytotoxic than 5(R)-(2′-hydroxyethoxy)-20(S)-camptothecin [4] [fold] | fold more cytotoxic than 5(R)-(2′-hydroxyethoxy)-20(S)-camptothecin [5] [fold]
1 | CC[C@@]1(O)C(=O)OCc2c1cc1n(c2=O)C(OCCO)c2cc3ccccc3nc2-1 (mixture of isomers) [5(RS)-(2′-hydroxyethoxy)-20(S)-camptothecin, reference compound] | 4+ | 5+ | 5+ | 3+ | 1260 | 387 | 60 | 0/5 | 64 | 0/5 |  | 
2 | CC[C@@]1(O)C(=O)OCc2c1cc1n(c2=O)[C@@H](OCCO)c2cc3ccccc3nc2-1 [DRF-(5S,20S)-1042, 5(S)-(2′-hydroxyethoxy)-20(S)-camptothecin] | 6+ | 6+ | 6+ | 6+ | 788 | 213 | 68 | 0/5 | 76 | 0/5 | > 2.5 | ~6
